# Experimental data: patent US8795222B2, “Device and method for treatment of surface infections with nitric oxide” (Pulmonox Technologies Corp., priority 2000, dated 2014)
# How the values were obtained:
# MRSA = experiment: Bacteriocidal time study, 200 ppm gNO, saline suspension; assay type: cell-based, Methicillin Resistant S. aureus
# Description: (§1) Following the dose and time ranging studies, a series of experiments were performed to determine the time required to effectively induce a bacteriocidal effect with 200 parts per million of gNO, a concentration just above the dose used in the dose-ranging study, on a representative collection of drug resistant gram-positive and gram-negative strains of bacteria associated with clinical infection. A successful bacteriocidal effect was defined as a decrease in bacteria greater than 3 log10 cfu/ml. Further, C. albicans, Methicillin Resistant S. aureus (MRSA), a particularly resistant strain of P. aeruginosa from a cystic fibrosis patient, Group B Streptococcus, and M. smegmatis were also included to see if yeast, multi-drug resistant strains of bacteria, and actinomycetes have a similar response. The drug-resistant bacteria represent a variety of pathogens that contribute to both respiratory and wound infections.
# (§2) For these experiments, saline was selected as a suspension media because it would not mask the direct effect of gNO as a bacteriocidal, whereas fully supplemented growth medium might introduce external variables (e.g., buffer or react with gNO). Other media might also provide metabolites and replenish nutrients that produce enzymes that protect bacteria from oxidative and nitrosative damage, thereby masking the effect of gNO. […] In saline, the colonies were static but remained viable. This is similar to the approach of Webert and Jean's use of animal models. Webert K E, et al (2000), Effects of inhaled nitric oxide in a rat model of Pseudomonas aeruginosa pneumonia, Crit. Care Med, 28(7):2397-2405 and Jean D, et al., (2002) Beneficial effects of nitric oxide inhalation on pulmonary bacterial clearance, Critical Care Medicine. 30(2):442-7.
# (§3) The latent period was then followed by an abrupt death of all cells. Gram negative and gram positive bacteria, antibiotic resistant bacterial strains, yeast and mycobacteria were all susceptible to 200 ppm gNO. Of importance, is the observation that the two drug resistant bacteria strains were also susceptible.
# collagen mRNA = experiment: mRNA expression after gNO exposure; assay type: cell-based
# Description: Rather than applying exogenous collagenase for enzymatic debridement of necrotic tissue, exposing a wound with necrotic tissue to exogenous NO gas to upregulate endogenous collagenase may be more beneficial. When endogenous collagenase is released by the cell, it automatically releases TIMP's (tissue inhibitor of metalloproteinase). This ensures that the matrix degradation is coordinated and allows the establishment of sharp geographical boundaries of collagenolytic activity and the protection of areas of connective tissue from the activity of the enzyme. In contrast, use of exogenous collagenase material to debride a wound confers no protection to specific areas of the wound as it is active on every cell that comes in contact with it whether or not the effect is desired.
# Preferably, after the exposure of the wound to high concentration of nitric oxide gas for a first treatment period (e.g., 5-8 hours per day), the necrotic tissue may be mechanically removed easily and the concentration of nitric oxide gas can be decreased for a second treatment period. The low concentration of nitric oxide gas (e.g., at 5-20 ppm) delivered for the second treatment period may upregulate the expression of collagen mRNA leading to synthesis of new collagen to aid in the closure of the wound. […] The second treatment period may be for a period 7-16 hours per day. […]
# Klebsiella sp. #1 = experiment: Bacteriocidal time study, 200 ppm gNO, saline suspension; assay type: cell-based
# Description: as §1, §2, §3
# Kiebsiella sp. #2 = experiment: as above; assay type: cell-based
# Description: as §1, §2, §3
# Serracia sp. = experiment: as above; assay type: cell-based
# Description: as §1, §2, §3
# S. maltophilia = experiment: as above; assay type: cell-based
# Description: as §1, §2, §3
# S. aureus (Clinical) = experiment: as above; assay type: cell-based
# Description: as §1, §2, §3
# S. aureus (ATCC) = experiment: as above; assay type: cell-based
# Description: as §1, §2, §3
# Klebsiella sp. #3 = experiment: as above; assay type: cell-based
# Description: as §1, §2, §3
# Enterobacter sp. = experiment: as above; assay type: cell-based
# Description: as §1, §2, §3
# E. coli = experiment: as above; assay type: cell-based
# Description: as §1, §2, §3
# P. aeruginosa (ATCC) = experiment: as above; assay type: cell-based
# Description: as §1, §2, §3
# Acinetobacter sp. = experiment: as above; assay type: cell-based
# Description: as §1, §2, §3
# Fibroblast cells = experiment: Fibroblast viability study in gNO chamber; assay type: cell-based, human
# Description: Fibroblast cells obtained from adult patients undergoing elective reconstructive surgery were cultured in Dulbeco's Modified Eagle's Medium (DMEM), supplemented with 10% fetal bovine serum (FBS) and antibiotic-antimycotic preparation and divided into ten 25 cm^2 vented culture flasks (COSTAR). […] The NO exposure chamber was validated prior to the study to eliminate extraneous variables and ensure optimal conditions for fibroblast cell growth. Another four flasks (control group) were placed inside conventional culture incubator and exposed only to ambient humidified air at 37° C. Two flasks were separately harvested and counted as the number of cells at zero time. Following the treatment, fibroblast cells were harvested and evaluated for morphology, cell count, capacity to proliferate and medium pH.
# Cells under gNO appeared healthy and attached to the culture plates.
# Capability of cells to reattach to the culture plates within a specified time limit is commonly used as an indication of viability of cells in culture. Both the control and treated groups show a 70% attachment capacity within 1 hour of culturing.
structure (smiles),measurement,setting,value
"[N]=O [gNO, nitric oxide]",LD100,MRSA,5 h
same,Latent Period*,MRSA,3 h
same,−2.5 Log10,MRSA; time to −2.5 log10 cfu/ml,4.2 hrs
same,collagen mRNA expression,collagen mRNA; fibroblast exposed to 5 ppm of NO,increased collagen mRNA expression
same,collagen expression,"collagen mRNA; high concentration, 200 ppm gNO, 24 hours and 48 hours",possible inhibition of collagen expression
same,LD100,Klebsiella sp. #1,6 h
same,Latent Period*,Klebsiella sp. #1,3 h
same,−2.5 Log10,Klebsiella sp. #1; time to −2.5 log10 cfu/ml,3.5 hrs
same,LD100,Kiebsiella sp. #2,5 h
same,Latent Period*,Kiebsiella sp. #2,2 h
same,−2.5 Log10,Kiebsiella sp. #2; time to −2.5 log10 cfu/ml,4.1 hrs
same,LD100,Serracia sp.,6 h
same,Latent Period*,Serracia sp.,4 h
same,−2.5 Log10,Serracia sp.; time to −2.5 log10 cfu/ml,4.9 hrs
same,LD100,S. maltophilia,4 h
same,Latent Period*,S. maltophilia,2 h
same,−2.5 Log10,S. maltophilia; time to −2.5 log10 cfu/ml,2.8 hrs
same,LD100,S. aureus (Clinical),4 h
same,Latent Period*,S. aureus (Clinical),3 h
same,−2.5 Log10,S. aureus (Clinical); time to −2.5 log10 cfu/ml,3.7 hrs
same,LD100,S. aureus (ATCC),4 h
same,Latent Period*,S. aureus (ATCC),3 h
same,−2.5 Log10,S. aureus (ATCC); time to −2.5 log10 cfu/ml,3.3 hrs
same,LD100,Klebsiella sp. #3,6 h
same,Latent Period*,Klebsiella sp. #3,3 h
same,−2.5 Log10,Klebsiella sp. #3; time to −2.5 log10 cfu/ml,5.1 hrs
same,LD100,Enterobacter sp.,6 h
same,Latent Period*,Enterobacter sp.,4 h
same,−2.5 Log10,Enterobacter sp.; time to −2.5 log10 cfu/ml,5.3 hrs
same,LD100,E. coli,5 h
same,Latent Period*,E. coli,3 h
same,−2.5 Log10,E. coli; time to −2.5 log10 cfu/ml,4.2 hrs
same,LD100,P. aeruginosa (ATCC),3 h
same,Latent Period*,P. aeruginosa (ATCC),1 h
same,−2.5 Log10,P. aeruginosa (ATCC); time to −2.5 log10 cfu/ml,2.1 hrs
same,LD100,Acinetobacter sp.,6 h
same,Latent Period*,Acinetobacter sp.,4 h
same,−2.5 Log10,Acinetobacter sp.; time to −2.5 log10 cfu/ml,5 hrs
same,attachment capacity,"Fibroblast cells; 160 ppm gNO, within 1 hour of culturing, control the same",70%
same,proliferation of fibroblast cells,"Fibroblast cells; 200 ppm NO, compared with control",positive effect of increasing proliferation
same,harmful effects on the fibroblast,"Fibroblast cells; around 200 ppm gNO, 24 and 48 hours",did not have harmful effects
same,"toxic effect, morphology and attachment",Fibroblast cells; gNO concentrations less than 200 ppm continuously for 48 hours,No toxic effect
